Reference: paper PMC2841647 (PLoS ONE, 2010)

Experiments:
mice [1] = assay: Elevated plus-maze (EPM); type: in vivo, mouse; settings: vs saline
Procedure: (§1) Mice were treated as described above before being subjected to behavioral studies. Predictive estimation for anxiolytic properties of tat-cyclotraxin-B was assessed using open field and elevated plus-maze (EPM). Antidepressant-like action of tat-cyclotraxin-B was assessed with the forced-swim test (FST). Effects of acute treatment with tat-cyclotraxin-B on spontaneous locomotion, exploration and reactivity to a novel open field was assessed in plexiglas activity chambers (Med Associates; 45×45×31 cm). Mice were placed into the center of the open field, and activity was recorded for 30 min. Testing took place under bright ambient light conditions to increase the anxiety component of the center areas of the field (defined as the central 15×15 cm portion). Mice subjected to EPM received a double 90-interval i.v. injection of tat-cyclotraxin-B or saline buffer before being placed on the platform of the EPM and assessed for 5 min (26×5×36 cm). The diazepam control group consisted of saline buffer double-treated mice that further received a 30-min i.p. injection of diazepam (1 mg/kg). Mice were assessed for number of entries and amount of time spent in open versus closed arms. The FST procedure was applied to treated mice as described by Porsolt et al. (see ref. [60]). Mice were dropped individually into glass cylinder (height, 25 cm; diameter, 10 cm) containing 10 cm water height, maintained at 23–25°C. Animals were tested for a total of 6 min. The total time of swimming, the number of climbing attempts and the time of immobility was recorded during the last 4 min of the session, after 2 min of habituation. The paroxetine control group consisted of saline buffer double-treated mice that further received a 30-min i.p. injection of paroxetine (2 mg/kg). Behaviors were recorded on videotape and scored blind.

mice [2] = assay: Forced swim test (FST); type: in vivo, mouse; settings: acute treatment
Procedure: as §1

phospho(Y816)-TrkB = molecular target: T1, phospho(Y816)-TrkB (Mus musculus, UniProt P15209); assay: Western blot with phospho(Y816)-TrkB antibody after intravenous injection; type: in vivo; settings: mice, i.v. injection, vs tat-empty
T1 construct: KIRA-ELISA analysis of brain TrkB receptors from mice; from tissue; host or cells: adult Swiss mouse brain, 300-µm coronal slices
Procedure: Cell lysates were prepared in boiling SDS (2%, w/v) as described previously and subjected to SDS-PAGE. Detection and analysis of eIF4E, MAPK and Akt phosphorylation were done using anti-total and -phospho-eIF4E antibodies (1∶1000, Cell Signaling), anti-total and -phospho-MAPK antibodies (1∶1000, Cell Signaling) or anti-total and–phospho (Ser473) Akt antibodies (1∶1000, Santa Cruz; 1∶1000, Cell Signaling, respectively), respectively. For TrkB expression analysis, cortical neurons were cultured for eight days and TetOn-rhTrkB cells were incubated overnight with doxycycline. Cells were solubilized as for KIRA-ELISA assays and lysates were centrifuged at 14,000×g for 20 min at 4°C. Cleared supernatant was collected and proteins were subjected to SDS-PAGE. Detection of rhTrkB-ECFP and neuronal mouse TrkB were performed using anti-GFP polyclonal antibody (1∶5000, Clontech) and anti-rodent TrkB polyclonal antibody (1 µg/ml, Upstate), respectively. TrkB phosphorylation was quantified using anti-phospho-TrkB antibody (kindly provided by M.V. Chao). Proteins were visualized using appropriate HRP-conjugated secondary antibodies and films were quantified by densitometry.
Supplementary file pone.0009777.s009.tif: Figure S8 Protocol for in vivo KIRA-ELISA analysis after intravenous injection. […] Bands intensity have been quantified (down) Data are mean ± s.e.m. […]

brain TrkB receptors = molecular target: T2, brain TrkB receptors (Mus musculus, UniProt P15209); assay: In vivo KIRA-ELISA analysis after intravenous injection; settings: mice, i.v. 2×200 µg, 90-min interval
T2 construct: KIRA-ELISA analysis of brain TrkB receptors from mice; from tissue; host or cells: adult Swiss mouse brain, 300-µm coronal slices
Procedure: Adult Swiss mice (20–25 g) received a double 90-min-interval i.v. injection of saline buffer, tat-cyclotraxin-B (2×200 µg) or tat-empty (2×200 µg). Three hours after the first injection, mice were decapitated, brains quickly removed on ice, 300-µm coronal sections were prepared with a vibratome at three levels (bregma 0.90 mm: caudate putamen/nucleus accumbens level; bregma −1.60 mm: dorsal hippocampus level; bregma −2.70 mm: ventral hippocampus level, see SI Fig. 8A ) and placed in a holding chamber for one hour. Slices were then incubated in Ringer's solution supplemented with tat-cyclotraxin-B or tat-empty (1 µM) in holding chamber saturated with 95% O2, 5% CO2. […] Experiments were stopped by quick removing of the medium on ice. […] Protein concentrations were determined and equal amounts of proteins were loaded in each well for KIRA-ELISA assays (see above). The following antibodies combination was used for phosphorylation assays: TrkB capture with polyclonal anti-TrkB (1 µg/ml); tyrosine phosphorylation quantification with biotinylated anti-phosphotyrosine (4G10, 0.5 µg/ml) and a streptavidin-peroxydase system (1∶4000). The following combination was used for total TrkB quantification: TrkB capture with monoclonal anti-TrkB (1∶1000); total TrkB quantification with polyclonal anti-TrkB (1 µg/ml). Absorbance at 450 nm was read after addition of TMB and acidification. […]

T2 sequence (P15209 32-821): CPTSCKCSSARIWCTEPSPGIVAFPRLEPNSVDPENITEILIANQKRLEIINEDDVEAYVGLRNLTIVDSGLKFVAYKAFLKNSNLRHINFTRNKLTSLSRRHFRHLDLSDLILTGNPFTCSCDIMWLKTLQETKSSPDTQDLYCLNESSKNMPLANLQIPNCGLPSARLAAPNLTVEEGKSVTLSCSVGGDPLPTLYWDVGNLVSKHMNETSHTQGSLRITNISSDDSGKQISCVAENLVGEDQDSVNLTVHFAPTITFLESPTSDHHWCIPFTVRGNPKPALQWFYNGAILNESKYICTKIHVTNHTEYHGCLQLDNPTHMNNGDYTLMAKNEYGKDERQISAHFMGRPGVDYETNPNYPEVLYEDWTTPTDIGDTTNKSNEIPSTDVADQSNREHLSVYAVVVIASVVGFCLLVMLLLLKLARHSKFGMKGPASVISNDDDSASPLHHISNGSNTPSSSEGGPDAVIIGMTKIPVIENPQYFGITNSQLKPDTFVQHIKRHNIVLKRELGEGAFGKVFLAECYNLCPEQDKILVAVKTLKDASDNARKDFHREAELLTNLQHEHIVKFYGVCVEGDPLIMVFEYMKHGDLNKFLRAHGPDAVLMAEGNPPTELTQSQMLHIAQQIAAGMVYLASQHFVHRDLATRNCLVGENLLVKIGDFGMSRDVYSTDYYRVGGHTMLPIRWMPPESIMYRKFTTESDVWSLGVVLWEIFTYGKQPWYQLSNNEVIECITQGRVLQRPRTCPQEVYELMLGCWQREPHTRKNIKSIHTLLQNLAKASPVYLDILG
T1 sequence (P15209 32-821): as above

YGRKKRRQRRRCNPMGYTKEGC [tat-cyclotraxin-B]
EPM number of entries in open arms (mice [1]): significantly increased | EPM time spent in open arms (mice [1]): significantly increased | FST swimming capabilities (mice [2]): not affected | FST climbing attempts (mice [2]; vs saline): not observed | FST time of immobility (mice [2]; vs saline): not observed | reduction in phospho(Y816)-TrkB band intensity (phospho(Y816)-TrkB): 37.7±4.7% | decrease in TrkB activity, injection (brain TrkB receptors): 50.9±3.1%
